These results are taken from PubChem BioAssay (NCI).

Among the test systems are SK-MEL-2 melanoma; K-562 leukemia; PC-3 prostate; OVCAR-4 ovarian; UACC-257 melanoma; HCT-15 colon.
What all share (test): growth of human tumour cells (NCI), 48 h

Molecules are shown by their SMILES.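 Exposure lasted 48 hours, with cells grown in 96-well plates and compounds tested at five concentrations. At the GI50, growth is halved. TGI: total growth inhibition.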 Where a SMILES comes first, the peptide text is derived from it. Bridges are numbered along the chain shown (N, C = ends). Roman numbers before positions name the chains, in order. [ ]: non-standard residue; d: D form. The star is where a group is joined. Heptadecanoyl = CCCCCCCCCCCCCCCCC(=O)*; Phg = N[CH](C(=O)O)c1ccccc1

`CN(C)C1COC2Cc3ccccc3C1O2` (stereo not given): the TGI with SK-MEL-2 melanoma, with K-562 leukemia, in the assay on PC-3 prostate, in the assay with OVCAR-4 ovarian, in the assay on UACC-257 melanoma and in the assay on HCT-15 colon was > 100 µM throughout.

Take `CCCC[Si](CCCC)(CCCC)O[C@@H](/C=C/C(=O)OCC)[C@H](Cc1ccccc1)O[Si](CCCC)(CCCC)CCCC`: the TGI with SK-MEL-2 melanoma, in the assay on K-562 leukemia, with PC-3 prostate, in the assay on OVCAR-4 ovarian, in the assay on UACC-257 melanoma and with HCT-15 colon was > 100 µM throughout.

`CCCCCCCCCCCCCCCCC(=O)N1CCCC1C(=O)NCC(=O)NC(C(=O)N1CCCC1C(=O)NC(CO)C(=O)NC(Cc1ccc(O)cc1)C(=O)NC(CCCCNC(=O)C1CCCN1C(=O)C(CCCCN)NC(=O)C(CCCCN)NC(=O)C(CCCCN)NC(=O)C(CCCNC(=N)N)NC(=O)C(CCCCN)NC(=O)C(N)C(C)C)C(=O)NC(CC(C)C)C(=O)NC(CCCNC(=N)N)C(=O)N1CCCC1C(=O)NCC(N)=O)c1ccccc1` (stereo not given) (I: Heptadecanoyl-PG[Phg]PSYKLRPG-NH2 / II: H-VKRKKKP; amide I:7-II:C; configuration not given here): the GI50 in the assay on SK-MEL-2 melanoma was 50.3 µM; with K-562 leukemia, 10.2 µM; in the assay on OVCAR-4 ovarian, 46.9 µM; in the assay with UACC-257 melanoma it was 12.2 µM. In addition, the TGI in the assay with SK-MEL-2 melanoma is > 100 µM; with K-562 leukemia it was 86.8 µM; in the assay on OVCAR-4 ovarian, > 100 µM; in the assay on UACC-257 melanoma it was 62.9 µM.

`C/C(=C\[C@H]1C[C@@H]([C@@H]2CC[C@]34C[C@]23C=C[C@@H]2[C@@]3(C)CC=C5C[C@@H](c6ccccc6)OC[C@]5(C)[C@@H]3C[C@@H](O)[C@]24C)C(=O)O1)CO`: the TGI in the assay on SK-MEL-2 melanoma was > 100 µM; with K-562 leukemia, > 100 µM; with PC-3 prostate it was > 55.6 µM; in the assay on OVCAR-4 ovarian it was > 62.7 µM; in the assay on UACC-257 melanoma it was 30.7 µM; in the assay on HCT-15 colon, 25.3 µM.

Consider `C/C(=C\c1ccc2c(c1)OCO2)[N+](=O)[O-]`, for which the TGI with SK-MEL-2 melanoma is 5.49 µM; in the assay with K-562 leukemia, > 100 µM; with PC-3 prostate, 5.9 µM; in the assay with OVCAR-4 ovarian, 14 µM; in the assay with UACC-257 melanoma, 5.54 µM; with HCT-15 colon, 5.21 µM.

Regarding `Nc1nc(Cl)cc(NCC2(CO)CC(Cc3ccccc3)C2)n1` (stereo not given), the TGI in the assay on SK-MEL-2 melanoma was > 72.5 µM; with K-562 leukemia, > 81.6 µM; in the assay with PC-3 prostate, > 90.8 µM; in the assay on OVCAR-4 ovarian, > 100 µM; in the assay with UACC-257 melanoma, > 82.3 µM; in the assay with HCT-15 colon it was > 100 µM.

For the compound `CCOC(=O)C(SCCO)C(C(=O)OCC)n1cc(C)c(=O)[nH]c1=O` (stereo not given), the TGI with SK-MEL-2 melanoma is 51.1 µM; in the assay with K-562 leukemia, 15.8 µM; in the assay on PC-3 prostate it was 34.6 µM; with OVCAR-4 ovarian, > 74.7 µM; in the assay on UACC-257 melanoma, > 84.6 µM; in the assay with HCT-15 colon, 25.7 µM.

`COc1ccc(C2Oc3c(cccc3OC)C=C2[N+](=O)[O-])cc1` (stereo not given): the TGI in the assay on K-562 leukemia was found to be 16.3 µM; with PC-3 prostate, 5.16 µM; with OVCAR-4 ovarian, 10.1 µM; in the assay with UACC-257 melanoma it was 19 µM; with HCT-15 colon it was 5.81 µM.

Take `O=C1c2ccc3ccccc3c2CCC1N1CCCCC1` (stereo not given): the TGI in the assay on SK-MEL-2 melanoma is 44.4 µM; in the assay on K-562 leukemia, 35 µM; with PC-3 prostate it was 42.3 µM; in the assay on OVCAR-4 ovarian it was 30.2 µM; with UACC-257 melanoma, 35 µM; in the assay with HCT-15 colon it was 37.4 µM.

As to `COc1cc(OC)nc(NC(=O)NS(=O)(=O)c2cccc3ncn(C)c(=O)c23)n1`, the TGI in the assay on SK-MEL-2 melanoma, in the assay with K-562 leukemia, with OVCAR-4 ovarian, in the assay with UACC-257 melanoma and in the assay on HCT-15 colon was > 100 µM in each case.

Regarding `Cn1c(=O)c2c(nc3sc4ncccc4c(=O)n32)n(C)c1=O`, the TGI with SK-MEL-2 melanoma, in the assay with PC-3 prostate, in the assay with OVCAR-4 ovarian, in the assay on UACC-257 melanoma and with HCT-15 colon was > 100 µM throughout.

In the case of `CC1OC2OC3C(OCC(O)C3O)OC(=O)[C@]34CCC(C)(C)CC3C3=CCC5[C@@]6(C)C[C@H](O)[C@H](OC7OC(CO)C(O)C(O)C7OC7OC(COC(=O)CC(C)(O)CC(=O)OC1C(O)C2O)C(O)C(O)C7O)[C@@](C)(CO)C6CC[C@@]5(C)[C@]3(C)CC4` (stereo not given in full), the TGI in the assay on SK-MEL-2 melanoma came out at 2.85 µM; in the assay with PC-3 prostate, 2.56 µM; in the assay on OVCAR-4 ovarian it was 3.15 µM; in the assay with UACC-257 melanoma, 2.64 µM; with HCT-15 colon it was 2.91 µM.

With `Cc1cc(-c2ccc(Cl)cc2)c(C#N)c(=S)n1C1OC(CO)C(O)C(O)C1O` (stereo not given), the TGI in the assay on SK-MEL-2 melanoma, with PC-3 prostate, in the assay on OVCAR-4 ovarian, with UACC-257 melanoma and with HCT-15 colon was > 100 µM each time.

Consider `COc1ccc(N=C2C(=Nc3ccc(OC)cc3)N(c3ccccc3[N+](=O)[O-])C(=S)N2c2ccc(OC)cc2)cc1`, for which the TGI in the assay on SK-MEL-2 melanoma, in the assay with K-562 leukemia, with PC-3 prostate and in the assay with HCT-15 colon was > 100 µM in each case.

In the case of `CC(=O)OCC(OC(C)=O)C(OC(C)=O)C(OC(C)=O)C(/C=N\Nc1nc2ccccc2c(=O)[nH]1)OC(C)=O` (stereo not given), the TGI in the assay with SK-MEL-2 melanoma, with K-562 leukemia, in the assay with PC-3 prostate, with UACC-257 melanoma and in the assay on HCT-15 colon was > 100 µM throughout.

As for `COc1ccc(C2C3=C(CCCC3=O)N(c3ccccc3)C3=C2C(=O)CCC3)cc1`, the TGI in the assay with K-562 leukemia, in the assay on PC-3 prostate, with OVCAR-4 ovarian and in the assay on HCT-15 colon was > 100 µM each time.

In the case of `CCOC(=O)c1nc2ccc(C(F)(F)F)cc2nc1Nc1ccc(OC)c(OC)c1`, the TGI in the assay with K-562 leukemia, in the assay on PC-3 prostate, in the assay on UACC-257 melanoma and in the assay with HCT-15 colon was > 100 µM each time.

Take `O=C1C=Cc2c(I)sc(I)c21`: the TGI is 64.4 µM in the assay with SK-MEL-2 melanoma; 56.8 µM in the assay on K-562 leukemia; 52.6 µM in the assay on OVCAR-4 ovarian; 53.5 µM in the assay with UACC-257 melanoma; 34 µM in the assay with HCT-15 colon.

As for `Cc1ccccc1Nc1cn(CCOc2ccccc2)c(=O)n(CCOc2ccccc2)c1=O`, the TGI with K-562 leukemia, in the assay with PC-3 prostate, in the assay on OVCAR-4 ovarian, with UACC-257 melanoma and in the assay on HCT-15 colon was > 100 µM in each case.

On to `CN(C)N1C(=O)CC2(CCN(CCCC(=O)c3ccc(F)cc3)CC2)C1=O`, for which the TGI in the assay with SK-MEL-2 melanoma, with K-562 leukemia, in the assay with PC-3 prostate, in the assay with UACC-257 melanoma and in the assay with HCT-15 colon was > 100 µM throughout.

Consider `CC(C)C(/C=C/c1ccc(Cl)cc1)=N\NC(=S)NN`, for which the TGI in the assay on SK-MEL-2 melanoma is 44.5 µM; in the assay with K-562 leukemia it was > 100 µM; in the assay with PC-3 prostate, > 100 µM; in the assay with UACC-257 melanoma, 98.9 µM; in the assay on HCT-15 colon it was > 100 µM.

On to `COc1ccc(-n2nnnc2C2(Nc3ccccc3)CCN(Cc3ccccc3)CC2)cc1`, for which the TGI with K-562 leukemia was 15.4 µM; in the assay with OVCAR-4 ovarian, > 100 µM; in the assay on UACC-257 melanoma it was 28.9 µM; in the assay with HCT-15 colon, 25.1 µM.

Regarding `CC(C)(Cc1ccccc1)Cc1cc(O)ccc1O`, the TGI was 44.2 µM in the assay with K-562 leukemia; > 100 µM in the assay on PC-3 prostate; 91.9 µM in the assay with OVCAR-4 ovarian; 29.5 µM with UACC-257 melanoma; 39.8 µM with HCT-15 colon.

As to `O=C(CN1CCCC1)Nc1ccc2sc3ccccc3c(=O)c2n1`, the TGI with SK-MEL-2 melanoma was 49.1 µM; in the assay with K-562 leukemia, 46.7 µM; in the assay on PC-3 prostate it was 57.4 µM; in the assay on OVCAR-4 ovarian, > 100 µM; with HCT-15 colon, > 100 µM.

On to `COc1ccc(N2C(=O)CC(c3c[nH]c4ccccc34)C2=O)cc1` (stereo not given), for which the TGI with SK-MEL-2 melanoma, in the assay with K-562 leukemia, with PC-3 prostate, in the assay with UACC-257 melanoma and with HCT-15 colon was > 100 µM each time.

In the case of `CC(C)(C)OC(=O)N1C(=O)OC[C@@H]2C=C[C@@H]21`, the TGI in the assay with SK-MEL-2 melanoma, with PC-3 prostate, with OVCAR-4 ovarian, in the assay with UACC-257 melanoma and in the assay with HCT-15 colon was > 100 µM in each case.

Turning to `COc1ccc2nc(-c3ccc(O)cc3)cn2c1`, the TGI in the assay with SK-MEL-2 melanoma, in the assay with K-562 leukemia, in the assay on PC-3 prostate, with OVCAR-4 ovarian and in the assay on HCT-15 colon was > 100 µM throughout.

With `CC1(CC(=O)OC(C#C[Si](C)(C)C)Cc2ccccc2)OCCO1` (stereo not given), the TGI in the assay on SK-MEL-2 melanoma, in the assay with PC-3 prostate, in the assay with OVCAR-4 ovarian, in the assay on UACC-257 melanoma and in the assay with HCT-15 colon was > 100 µM throughout.

In the case of `Nc1nc(Cl)nc2c1ncn2C1CCC(CO)O1` (stereo not given), the TGI with SK-MEL-2 melanoma, in the assay on PC-3 prostate, in the assay with OVCAR-4 ovarian, in the assay on UACC-257 melanoma and with HCT-15 colon was > 100 µM in each case.

As to `Cc1cccc(C(O)c2ccccn2)c1O` (stereo not given), the TGI in the assay on K-562 leukemia, in the assay on PC-3 prostate, in the assay on UACC-257 melanoma and in the assay on HCT-15 colon was > 100 µM throughout.
